Earlier results in patent US20050025807A1, “Cured porous calcium phosphate material and uses thereof” (NATIONAL INSTITUTE OF ADVANCED INDUSTRIAL SCIENCE AND …, priority 2003, published 2005).

Conditions: agitation 200 to 300 rpm at 30° C.; calculated by Nernst-Noyes-Whitney formula

For `CCC1(c2ccccc2)C(=O)NC(=O)NC1=O` [phenobarbitol], the “Thickness of diffusion layer” value is listed as “about 30 microns”.
